Measured values taken from PubChem BioAssay (NCI).
Where “and” joins values, the source holds several entries; their conditions need not be identical. Equal values may be shown once.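 In this assay, cells in 96-well plates receive the compound at five concentrations for 48 hours. Endpoints are linearly interpolated between the surrounding concentrations. GI50 = concentration required for 50% inhibition of growth. TGI: total growth inhibition.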

Experiments:
Test in all cases: DTP human tumour cell line panel, 48 h
[1] = test system: HT29 colon
[2] = test system: K-562 leukemia
[3] = test system: NCI-H226 lung
[4] = test system: OVCAR-8 ovarian
[5] = test system: PC-3 prostate
[6] = test system: SF-539 CNS
[7] = test system: SNB-75 CNS
[8] = test system: SR leukemia
[9] = test system: U251 CNS
[10] = test system: UO-31 renal

Row | SMILES | GI50 [1] [µM] | TGI [1] | GI50 [2] [µM] | TGI [2] [µM] | GI50 [3] [µM] | TGI [3] [µM] | GI50 [4] [µM] | TGI [4] [µM] | GI50 [5] [µM] | TGI [5] [µM] | GI50 [6] [µM] | TGI [6] [µM] | GI50 [7] [µM] | TGI [7] | GI50 [8] [µM] | TGI [8] [µM] | GI50 [9] [µM] | TGI [9] [µM] | GI50 [10] [µM] | TGI [10] [µM]
1 | Nc1nc(N)c(-c2ccc(Cl)cc2)c(/C=C/c2ccc([N+](=O)[O-])cc2)n1 | 4.99 | > 100 µM | 3.16 | > 100 | 20.3 | > 100 | 4.77 | > 100 | 3.9 | > 100 | 7.15 | 30 | 5 | 34 µM | 6.25 | > 100 | 3.99 | 23.8 | 21.4 | > 100
2 | CC(=O)N1c2ccc(-c3ccc(C(=O)O)cc3)cc2[C@H](Nc2ccc(Cl)cc2)C[C@@H]1C | 0.122 | 29 µM | 0.168 | > 55.2 | 1.71 | 19.9 | 2.52 | 63.5 | 1.24 | 28.7 | 0.0622 | 20.2 | < 0.0165 | > 100 µM | 0.0342 | 18.7 | 1.55 | 32.9 | < 0.0251 | 13
3 | O=C1C=C(OCC=C(Cl)Cl)C(=O)c2ccccc21 | 11.7 | > 100 µM | 1.01 | > 23 | 18.7 | 67.5 | 3.29 | 15.8 | 5.14 | > 100 | 43.9 | > 100 | 7.4 | 56.9 µM |  | > 20.4 | 2.41 | 13.8 | 3.15 | 15.9
4 | O=C1/C(=C/c2cccc(F)c2)CN(C(=O)C(Cl)Cl)C/C1=C\c1cccc(F)c1 | 0.113 | 0.764 µM | 0.0332 |  | 0.259 | 0.685 | 0.184 | 1.13 | 0.186 | 0.539 | 0.265 | 0.824 | 0.392 | 1.73 µM | 0.0296 | 0.465 | 0.116 | 0.294 | 0.176 | 0.387
5 | CN1CCN(Cc2ccc(NC(=O)c3cncc(C#Cc4ncc5ccccn45)c3)cc2C(F)(F)F)CC1 | 0.827 | 8.96 µM | 0.0025 | 2.91 | 0.451 | 3.91 | 2.21 | 5.42 | 1.27 | 8.65 | 0.471 | 1.91 | 2.73 | 5.77 µM | 0.511 | 1.41 | 2.89 | 6.39 | 1.25 | 3.72
6 | CCC(=O)Oc1ccc(/C=N/NC(N)=S)nc1 | 19.3 | > 100 µM | 5.05 | > 100 | 9.72 | 43.4 | 3.51 | > 100 | 6.83 | > 100 | 1.51 | 5.52 | 6.13 | > 100 µM | 1.34 | > 100 | 4.5 | > 100 | 3.48 | 22.8
7 | CCCC(CCC)C(=O)O | > 100 | > 100 µM and 12400 µM | > 100 | > 20000 | > 20000 | > 20000 | > 100 | > 20000 | > 100 | > 20000 | > 100 | > 20000 | > 100 | > 100 µM and 18400 µM | > 100 | > 20000 | > 100 | > 20000 | > 100 | > 20000
